Test results as given in US6407103B2, “Indeno [1,2-c] pyrazol-4-ones and their uses” (Bristol-Myers Squibb Pharma Company, priority 1998, dated 2002).
Structures can show the parent of a compound that is named as a salt.

Row | melting point | Compound
1 | 230 °C | CC1CN(c2ccc(-c3[nH]nc4c3C(=O)c3c(NC(=O)NN5CCOCC5)cccc3-4)cc2)CCN1 (stereo not shown) (as salt: TFA) [Example CCXXXVII, 3-(4-(3-methylpiperazino)phenyl)-5-(morpholinocarbamoylamino)indeno[1,2-c]pyrazol-4-one]
2 | 221 °C | CCOC(=O)c1ccc(-c2[nH]nc3c2C(=O)c2c(NC(=O)NN4CCC[C@@H]4COC)cccc2-3)s1 [Example CCI, 3-(5-carboethoxy-2-thienyl)-5-(2 (R)-(methoxymethyl)pyrrolidinocarbamoylamino)indeno[1,2-c]pyrazol-4-one]
3 | 201 °C | NC1CCN(C(=O)c2ccc(-c3[nH]nc4c3C(=O)c3c(NC(=O)NN5CCOCC5)cccc3-4)s2)C1 (stereo not shown) (as salt: TFA) [Example CLXXV, 3-(5-(3-aminopyrrolidinocarbonyl)-2-thienyl)-5-(morpholinocarbamoylamino)indeno[1,2-c]pyrazol-4-one]
4 | 253 °C | CCc1[nH]nc2c1C(=O)c1c(NC(=O)NN3CCOCC3)cccc1-2 (as salt: TFA) [Example CCLIX, 3-ethyl-5-(morpholinocarbamoylamino)indeno[1,2-c]pyrazol-4-one]
5 | 262 °C | COC[C@H]1CCCN1C(=O)c1ccc(-c2[nH]nc3c2C(=O)c2c(NC(=O)NN4CCOCC4)cccc2-3)s1 (as salt: TFA) [Example CLXXXVI, 3-(5-(2(R)-(methoxymethyl)pyrrolidinocarbonyl)-2-thienyl)-5-(morpholinocarbamoylamino)indeno[1,2-c]pyrazol-4-one]
6 | 169 °C | O=C(Nc1cccc2c1C(=O)c1c-2n[nH]c1C1CCN(C(=O)C2CCCNC2)CC1)NN1CCOCC1 (stereo not shown) (as salt: TFA) [Example CCLXXXVII, 3-(1-(piperidin-3-ylcarbonyl)piperidin-4-yl)-5-(morpholinocarbamoylamino)indeno[1,2-c]pyrazol-4-one]
7 | > 300 °C | COc1ccc(-c2[nH]nc3c2C(=O)c2c(NC(=O)Nc4ccccc4)cccc2-3)cc1 [Example XLII, 3-(4-methoxyphenyl)-5-((phenylcarbamoyl)amino)indeno [1,2-c]pyrazol-4-one]
8 | 226 °C | COc1ccc(-c2[nH]nc3c2C(=O)c2c(NC(=O)Cc4cc(OC)ccc4OC)cccc2-3)cc1 [Example XIV, 3-(4-methoxyphenyl)-5-((2,5-dimethoxyphenyl)acetamido)indeno[1,2-c]pyrazol-4-one]
9 | > 300 °C | COc1ccc(-c2[nH]nc3c2C(=O)c2c(NC(=O)CN4CCN(CCO)CC4)cccc2-3)cc1 [Example XXVIII, 3-(4-methoxyphenyl)-5-(4-(2-hydroxyethyl)piperazinoacetamido)indeno[1,2-c]pyrazol-4-one]
10 | > 300 °C | COc1ccc(-c2[nH]nc3c2C(=O)c2c(NC(=O)Cc4ccc(OC)c(OC)c4)cccc2-3)cc1 [Example XIII, 3-(4-methoxyphenyl)-5-((3,4-dimethoxyphenyl)acetamido)indeno[1,2-c]pyrazol-4-one]
11 | 239 °C | NCC1CCN(CC(=O)Nc2cccc3c2C(=O)c2c-3n[nH]c2-c2ccc(N3CCNCC3)cc2)CC1 (as salt: TFA) [Example CCXVII, 3-(4-piperazinophenyl)-5-(4-(aminomethyl)piperidinoacetamido)indeno[1,2-c]pyrazol-4-one]
12 | 202 °C | NC1CCC(C(=O)N2CCC(c3[nH]nc4c3C(=O)c3c(NC(=O)NN5CCOCC5)cccc3-4)CC2)CC1 (stereo not shown) (as salt: TFA) [Example CCLXXXIII, 3-(1-(4-aminocyclohexylcarbonyl)piperidin-4-yl)-5-(morpholinocarbamoylamino)indeno[1,2-c]pyrazol-4-one]
13 | 268 °C | COc1ccc(-c2[nH]nc3c2C(=O)c2c(NC(C)=O)cccc2-3)cc1 [Example I, 3-(4-methoxyphenyl)-5-(acetamido)indeno[1,2-c]pyrazol-4-one]
14 | 267 °C | COc1ccc(-c2[nH]nc3c2C(=O)c2c(NC(=O)C4CCCC4)cccc2-3)cc1 [Example VI, 3-(4-methoxyphenyl)-5-(cyclopentanecarboxamido)indeno[1,2-c]pyrazol-4-one]
15 | 207 °C | O=C(Nc1cccc2c1C(=O)c1c-2n[nH]c1-c1ccc(N2CCNCC2)cc1)NN1CCC[C@@H]1COCc1ccccc1 (as salt: TFA) [Example CCXXXV, 3-(4-piperazinophenyl)-5-((2(R)-(benzyloxymethyl)pyrrolidino)carbamoylamino)indeno[1,2-c]pyrazol-4-one]
16 | > 300 °C | CC(=O)Nc1cccc2c1C(=O)c1c-2n[nH]c1-c1ccc(O)cc1 [Example XLVI, 3-(4-hydroxyphenyl)-5-(acetamido)indeno[1,2-c]pyrazol-4-one]

Row | melting point | Compound
17 | 257 °C | NNC(=O)Nc1cccc2c1C(=O)c1c-2n[nH]c1-c1ccc(N2CCNCC2)cc1 (as salt: TFA) [Example CCXIII, 3-(4-piperazinophenyl)-5-(aminocarbamoylamino)indeno[1,2-c]pyrazol-4-one]
18 | 238 °C | COc1ccc(-c2[nH]nc3c2C(=O)c2c(NC(=O)Cc4ccc(Cl)cc4)cccc2-3)cc1 [Example X, 3-(4-methoxyphenyl)-5-((4-chlorophenyl)acetamido)indeno[1,2-c]pyrazol-4-one]
19 | 186 °C | CCN1CCN(C(=O)c2ccc(-c3[nH]nc4c3C(=O)c3c(NC(=O)NN5CCOCC5)cccc3-4)s2)CC1 (as salt: TFA) [Example CLI, 3-(5-(4-ethylpiperazinocarbonyl)-2-thienyl)-5-(morpholinocarbamoylamino)indeno[1,2-c]pyrazol-4-one]
20 | 270 °C | CC1CCCC(C)N1NC(=O)Nc1cccc2c1C(=O)c1c-2n[nH]c1-c1ccc(N2CCNCC2)cc1 (stereo not shown) (as salt: TFA) [Example CCXXVII, 3-(4-piperazinophenyl)-5-((2,6-dimethylpiperidino)carbamoylamino)indeno[1,2-c]pyrazol-4-one]
21 | 265 °C | CN(C)[C@@H]1CCN(C(=O)c2ccc(-c3[nH]nc4c3C(=O)c3c(NC(=O)NN5CCOCC5)cccc3-4)s2)C1 (as salt: TFA) [Example CLXXXI, 3-(5-(3(R)-(N,N-dimethylamino)pyrrolidinocarbonyl)-2-thienyl)-5-(morpholinocarbamoylamino)indeno[1,2-c]pyrazol-4-one]
22 | > 300 °C | COc1ccc(-c2[nH]nc3c2C(=O)c2c(NC(=O)N[C@@H]4CCCC[C@@H]4N)cccc2-3)cc1 (relative stereo) [Example LXVII, 3-(4-methoxyphenyl)-5-((cis-2-aminocyclohexylcarbamoyl)amino)indeno[1,2-c]pyrazol-4-one]
23 | > 300 °C | CC(=O)N(C)[C@H]1CCN(C(=O)c2ccc(-c3[nH]nc4c3C(=O)c3c(NC(=O)NN5CCOCC5)cccc3-4)s2)C1 (as salt: TFA) [Example CLXXVIII, 3-(5-(3(S)-(N-methylacetamido)pyrrolidinocarbonyl)-2-thienyl)-5-(morpholinocarbamoylamino)indeno[1,2-c]pyrazol-4-one]
24 | 275 °C | CC(=O)Nc1cccc2c1C(=O)c1c-2n[nH]c1-c1sccc1C [Example XC, 3-(3-methyl-2-thienyl)-5-(acetamido)indeno[1,2-c]pyrazol-4-one]
25 | 243 °C | COc1ccc(-c2[nH]nc3c2C(=O)c2c(NC(=O)CNCCO)cccc2-3)cc1 [Example XXIV, 3-(4-methoxyphenyl)-5-((2-hydroxyethyl)aminoacetamido)indeno[1,2-c]pyrazol-4-one]
26 | 245 °C | CCN1CCN(c2ccc(-c3[nH]nc4c3C(=O)c3c(NC(=O)NN5CCOCC5)cccc3-4)cc2)CC1 (as salt: TFA) [Example CCXIX, 3-(4-(4-ethylpiperazino)phenyl)-5-(morpholinocarbamoylamino)indeno[1,2-c]pyrazol-4-one]
27 | 255 °C | COc1ccc(-c2[nH]nc3c2C(=O)c2c(NC(=O)Cc4ccccc4OC)cccc2-3)cc1 [Example XIX, 3-(4-methoxyphenyl)-5-((2-methoxyphenyl)acetamido)indeno[1,2-c]pyrazol-4-one]
28 | 268 °C | COc1ccc(-c2[nH]nc3c2C(=O)c2c(NC(=O)Cc4ccc(NC(C)=O)cc4)cccc2-3)cc1 [Example XXXVI, 3-(4-methoxyphenyl)-5-((4-acetamidophenyl)acetamido)indeno[1,2-c]pyrazol-4-one]
29 | 198 °C | Nc1ccc(C(=O)N2CCC(c3[nH]nc4c3C(=O)c3c(NC(=O)NN5CCOCC5)cccc3-4)CC2)cc1 (as salt: TFA) [Example CCXCVII, 3-(1-(4-aminophenylcarbonyl)piperidin-4-yl)-5-(morpholinocarbamoylamino)indeno[1,2-c]pyrazol-4-one]
30 | > 300 °C | O=C(Nc1cccc2c1C(=O)c1c-2n[nH]c1-c1ccc(C(=O)N2CCCC2)s1)NN1CCOCC1 (as salt: TFA) [Example CLXXIV, 3-(5-pyrrolidinocarbonyl-2-thienyl)-5-(morpholinocarbamoylamino)indeno[1,2-c]pyrazol-4-one]
31 | 231 °C | CC(C)c1[nH]nc2c1C(=O)c1c(NC(=O)NN3CCN(C)CC3)cccc1-2 [Example CXXI, 3-(i-propyl)-5-((4-methylpiperazino)carbamoylamino)indeno [1,2-c]pyrazol-4-one]
32 | 224 °C | O=C(Nc1cccc2c1C(=O)c1c-2n[nH]c1-c1ccc(C(=O)NC2CCNCC2)s1)NN1CCOCC1 (as salt: TFA) [Example CLXII, 3-(5-(4-piperidylaminocarbonyl)-2-thienyl)-5-(morpholinocarbamoylamino)indeno[1,2-c]pyrazol-4-one]

Row | Compound | melting point
33 | COC[C@H]1CCCN1NC(=O)Nc1cccc2c1C(=O)c1c-2n[nH]c1-c1ccc(C(=O)N2CCN(C(=O)OC(C)(C)C)CC2)s1 (as salt: TFA) [Example CCV, 3-(5-(4-(t-butoxycarbonyl)piperazinocarbonyl)-2-thienyl)-5-(2(R)-(methoxymethyl)pyrrolidinocarbamoylamino)indeno[1,2-c]pyrazol-4-one] | > 300 °C
34 | CC(C)(C)OC(=O)N1CCC(C(=O)N2CCC(c3[nH]nc4c3C(=O)c3c(NC(=O)NN5CCOCC5)cccc3-4)CC2)CC1 [Example CCLXXXI, 3-(1-((1-(t-butoxycarbonyl)piperidin-4-yl)carbonyl)piperidin-4-yl)-5-(morpholinocarbamoylamino)indeno[1,2-c]pyrazol-4-one] | 220 °C
